Earlier results in publication PMC8513935.

Assay: experimental, compiled by the authors from the literature (the ESI cites the sources)
Details: 1,2-Dichloroethane, 25 C

| SMILES | log K of transfer, gas to solvent [log10 K] |
| --- | --- |
| Oc1ccccc1 | 5.46 |
| CC(C)C(C)C(C)C | 3.19 |

Same assay, conditions: Acetonitrile, 25 C

| log K of transfer, gas to solvent [log10 K] | SMILES |
| --- | --- |
| 2.51 | CC(C)C(C)C(C)C |

Same assay, conditions: Benzene, 25 C

| SMILES | log K of transfer, gas to solvent [log10 K] |
| --- | --- |
| Oc1ccccc1 | 5.22 |

Same assay, conditions: Butan-1-ol, 25 C

| log K of transfer, gas to solvent [log10 K] | SMILES |
| --- | --- |
| 3.1 | CC(C)C(C)C(C)C |

Same assay, conditions: Butanone, 25 C

| log K of transfer, gas to solvent [log10 K] | SMILES |
| --- | --- |
| 3.22 | CC(C)C(C)C(C)C |

Same assay, conditions: Butyronitrile, 25 C

| log K of transfer, gas to solvent [log10 K] | SMILES |
| --- | --- |
| 3.01 | CC(C)C(C)C(C)C |

Same assay, conditions: CCl4, 25 C

| SMILES | log K of transfer, gas to solvent [log10 K] |
| --- | --- |
| Oc1ccccc1 | 4.55 |
| CC(C)C(C)C(C)C | 3.72 |

Same assay, conditions: Chlorobenzene, 25 C

| SMILES | log K of transfer, gas to solvent [log10 K] |
| --- | --- |
| Oc1ccccc1 | 5.1 |
| CC(C)C(C)C(C)C | 3.69 |

Same assay, conditions: Chloroform, 25 C

| SMILES | log K of transfer, gas to solvent [log10 K] |
| --- | --- |
| Oc1ccccc1 | 5.17 |
| CC(C)C(C)C(C)C | 3.63 |

Same assay, conditions: Cyclohexane, 25 C

| SMILES | log K of transfer, gas to solvent [log10 K] |
| --- | --- |
| Oc1ccccc1 | 4.03 |

Same assay, conditions: Cyclohexanone, 25 C

| log K of transfer, gas to solvent [log10 K] | SMILES |
| --- | --- |
| 3.15 | CC(C)C(C)C(C)C |

Same assay, conditions: Dichloromethane, 25 C

| SMILES | log K of transfer, gas to solvent [log10 K] |
| --- | --- |
| Oc1ccccc1 | 5.49 |
| CC(C)C(C)C(C)C | 3.47 |

Same assay, conditions: Ethanol, 25 C

| log K of transfer, gas to solvent [log10 K] | SMILES |
| --- | --- |
| 2.94 | CC(C)C(C)C(C)C |

Same assay, conditions: Hexadecane, 25 C

| SMILES | log K of transfer, gas to solvent [log10 K] |
| --- | --- |
| Oc1ccccc1 | 3.76 |
| CC(C)C(C)C(C)C | 3.48 |

Same assay, conditions: Hexane, 25 C

| SMILES | log K of transfer, gas to solvent [log10 K] |
| --- | --- |
| Oc1ccccc1 | 3.67 |
| CC(C)C(C)C(C)C | 3.68 |

Same assay, conditions: Methanol, 25 C

| log K of transfer, gas to solvent [log10 K] | SMILES |
| --- | --- |
| 2.66 | CC(C)C(C)C(C)C |

Same assay, conditions: Octan-1-ol, 25 C

| SMILES | log K of transfer, gas to solvent [log10 K] |
| --- | --- |
| Oc1ccccc1 | 5.68 |

Same assay, conditions: Perfluoroalkane, 25 C

| SMILES | log K of transfer, gas to solvent [log10 K] |
| --- | --- |
| Oc1ccccc1 | 2.23 |
| CC(C)C(C)C(C)C | 2.45 |

Same assay, conditions: Propan-1-ol, 25 C

| log K of transfer, gas to solvent [log10 K] | SMILES |
| --- | --- |
| 2.95 | CC(C)C(C)C(C)C |

Same assay, conditions: Propan-2-ol, 25 C

| log K of transfer, gas to solvent [log10 K] | SMILES |
| --- | --- |
| 2.95 | CC(C)C(C)C(C)C |

Same assay, conditions: Propanone, 25 C

| log K of transfer, gas to solvent [log10 K] | SMILES |
| --- | --- |
| 3.03 | CC(C)C(C)C(C)C |

Same assay, conditions: Propionitrile, 25 C

| log K of transfer, gas to solvent [log10 K] | SMILES |
| --- | --- |
| 2.83 | CC(C)C(C)C(C)C |

Same assay, conditions: Tetrahydrofuran, 25 C

| log K of transfer, gas to solvent [log10 K] | SMILES |
| --- | --- |
| 3.59 | CC(C)C(C)C(C)C |

Same assay, conditions: Toluene, 25 C

| SMILES | log K of transfer, gas to solvent [log10 K] |
| --- | --- |
| Oc1ccccc1 | 5.08 |

Same assay, conditions: Water, 25 C

| SMILES | log K of transfer, gas to solvent [log10 K] |
| --- | --- |
| Oc1ccccc1 | 4.85 |
| CC(C)C(C)C(C)C | -1.88 |

Assay: derived by the authors as gas->solvent minus gas->water (a hypothetical dry solvent; the ESI), not a two-phase measurement
Details: 1,2-Dichloroethane, 25 C

| SMILES | log K of transfer, water to solvent [log10 K] |
| --- | --- |
| Oc1ccccc1 | 0.61 |
| CC(C)C(C)C(C)C | 5.07 |

Same assay, conditions: Acetone, 25 C

| log K of transfer, water to solvent [log10 K] | SMILES |
| --- | --- |
| 4.91 | CC(C)C(C)C(C)C |

Same assay, conditions: Acetonitrile, 25 C

| log K of transfer, water to solvent [log10 K] | SMILES |
| --- | --- |
| 4.39 | CC(C)C(C)C(C)C |

Same assay, conditions: Benzene, 25 C

| SMILES | log K of transfer, water to solvent [log10 K] |
| --- | --- |
| Oc1ccccc1 | 0.37 |

Same assay, conditions: Butan-1-ol, 25 C

| log K of transfer, water to solvent [log10 K] | SMILES |
| --- | --- |
| 4.98 | CC(C)C(C)C(C)C |

Same assay, conditions: Butanone, 25 C

| log K of transfer, water to solvent [log10 K] | SMILES |
| --- | --- |
| 5.1 | CC(C)C(C)C(C)C |

Same assay, conditions: Butyronitrile, 25 C

| log K of transfer, water to solvent [log10 K] | SMILES |
| --- | --- |
| 4.89 | CC(C)C(C)C(C)C |

Same assay, conditions: CCl4, 25 C

| SMILES | log K of transfer, water to solvent [log10 K] |
| --- | --- |
| Oc1ccccc1 | -0.3 |
| CC(C)C(C)C(C)C | 5.6 |

Same assay, conditions: Chlorobenzene, 25 C

| SMILES | log K of transfer, water to solvent [log10 K] |
| --- | --- |
| Oc1ccccc1 | 0.25 |
| CC(C)C(C)C(C)C | 5.57 |

Same assay, conditions: Chloroform, 25 C

| SMILES | log K of transfer, water to solvent [log10 K] |
| --- | --- |
| Oc1ccccc1 | 0.32 |
| CC(C)C(C)C(C)C | 5.51 |

Same assay, conditions: Cyclohexane, 25 C

| SMILES | log K of transfer, water to solvent [log10 K] |
| --- | --- |
| Oc1ccccc1 | -0.813 |

Same assay, conditions: Cyclohexanone, 25 C

| log K of transfer, water to solvent [log10 K] | SMILES |
| --- | --- |
| 5.03 | CC(C)C(C)C(C)C |

Same assay, conditions: Dichloromethane, 25 C

| SMILES | log K of transfer, water to solvent [log10 K] |
| --- | --- |
| Oc1ccccc1 | 0.64 |
| CC(C)C(C)C(C)C | 5.35 |

Same assay, conditions: Ethanol, 25 C

| log K of transfer, water to solvent [log10 K] | SMILES |
| --- | --- |
| 4.82 | CC(C)C(C)C(C)C |

Same assay, conditions: Hexadecane, 25 C

| SMILES | log K of transfer, water to solvent [log10 K] |
| --- | --- |
| Oc1ccccc1 | -1.08 |
| CC(C)C(C)C(C)C | 5.36 |

Same assay, conditions: Hexane, 25 C

| SMILES | log K of transfer, water to solvent [log10 K] |
| --- | --- |
| Oc1ccccc1 | -1.18 |
| CC(C)C(C)C(C)C | 5.56 |

Same assay, conditions: Methanol, 25 C

| log K of transfer, water to solvent [log10 K] | SMILES |
| --- | --- |
| 4.54 | CC(C)C(C)C(C)C |

Same assay, conditions: Octan-1-ol(dry), 25 C

| SMILES | log K of transfer, water to solvent [log10 K] |
| --- | --- |
| Oc1ccccc1 | 0.83 |

Same assay, conditions: Perfluoroalkane, 25 C

| SMILES | log K of transfer, water to solvent [log10 K] |
| --- | --- |
| Oc1ccccc1 | -2.62 |
| CC(C)C(C)C(C)C | 4.33 |

Same assay, conditions: Propan-1-ol, 25 C

| log K of transfer, water to solvent [log10 K] | SMILES |
| --- | --- |
| 4.83 | CC(C)C(C)C(C)C |

Same assay, conditions: Propan-2-ol, 25 C

| log K of transfer, water to solvent [log10 K] | SMILES |
| --- | --- |
| 4.83 | CC(C)C(C)C(C)C |

Same assay, conditions: Propionitrile, 25 C

| log K of transfer, water to solvent [log10 K] | SMILES |
| --- | --- |
| 4.71 | CC(C)C(C)C(C)C |

Same assay, conditions: Tetrahydrofuran, 25 C

| log K of transfer, water to solvent [log10 K] | SMILES |
| --- | --- |
| 5.47 | CC(C)C(C)C(C)C |

Same assay, conditions: Toluene, 25 C

| SMILES | log K of transfer, water to solvent [log10 K] |
| --- | --- |
| Oc1ccccc1 | 0.23 |

Assay: log P octanol/water from commercial databases, averaged (the ESI)
Details: Octanol (wet), 25 C

| SMILES | log K of transfer, water to solvent [log10 K] |
| --- | --- |
| Oc1ccccc1 | 1.5 |
| CC(C)C(C)C(C)C | 4.8 |
